These are literature values, as cited in patent US4835149A, “Solubilization of salts of pyridine-2-thiol-1-oxide” (BASF Corporation, priority 1986, dated 1989).

Test in data set [1]: not given
The source holds these as a separate data set.

In the case of `[O-][n+]1ccccc1[S-].[O-][n+]1ccccc1[S-].[Zn+2]` [zinc salt], the “solubility of the zinc salt in a composition according to U.S. Pat. No. 3,636,213” value (composition having a pH of about 8) is listed as “at least 200 parts per million”. The “solubility in water at pH 8” value (pH of 8) was 35 to 50 parts per million. The “solubility in water at pH 7” value (water, pH 7) is on record as 10 to 20 parts per million. The solubility in benzene in data set [1] (benzene) is given as 3-5 p.p.m. Further, the solubility in chloroform in data set [1] (chloroform) is listed as 3400 p.p.m. Also, the “solubility in dimethyl formamide” value in data set [1] (dimethyl formamide) is 8100 p.p.m. Also, the “solubility in dimethyl sulfoxide” value in data set [1] (dimethyl sulfoxide) is on record as 5.13%. The solubility in ethanol in data set [1] (ethanol) was 310 p.p.m. Besides, in data set [1] (petroleum oils, and most common organic solvents, in words), the “solubility in petroleum oils, and most common organic solvents” value is recorded as “substantially insoluble”. Besides, the solubility in water in data set [1] (water) is given as 10-20 p.p.m.
